From patent US20260242366A1, “STING AGONISTS CONTAINING HYDRAZIDE, HYDRAZINE, AND HYDROXAMIC ACID FUNCTIONAL GROUPS” (BioNTech SE, priority 2023, published 2026)
Several values for one entry are separate records, joined by “and”; a condition that tells them apart may be missing. Equal values may be shown once. Read-outs that look alike come from different tables or passages of the source. Each block holds one compound with its values, some of them ahead of it.

Columns and labels:
[1] = tested on: PBMCs from healthy donors; assay: PBMC assay, dose-dependent cytokine induction; type: cell-based; details: Homo sapiens, 24 h
Experimental: Compounds I-A to IV were additionally tested on PBMCs from healthy donors to determine the dose-dependent cytokine induction. PBMCs from buffy coats were thawed on the day of the experiment and seeded with a density of 5×10^5 cells per well (96-well format, RPMI with 5% Human Serum+1% MEM Non-Essential Amino Acids+1% Sodium Pyruvate). In line with the experiment above, a serial dilution of the compounds was prepared and added to the cells for 24 hours. On the next days, cells were centrifuged and supernatants harvested for a cytokine readout based on a multiplex assay kit from mesoscale discovery (customized multiplex panel for the cytokines: IFNα2a, IFNβ, TNFα and IL6). Impact on cell viability was determined by CellTiter Glo2.0 from promega (Cat. G9241). Both experimental read outs were performed according to the manufacturer's instructions.

[2] = tested on: STING signaling (IRF and NFKB-pathway activation) in THP1 Dual Cells; assay: THP-1 assay (THP1 Dual reporter cells, IRF / NFkB pathway activation); type: cell-based; details: for EC50: Homo sapiens, THP1 Dual cells
Experimental: THP1 Dual Cells™, were purchased from Invivogen (Cat. thpd-nfis), and used to determine the biological activity of the compounds on a molecular level and to determine downstream activation of STING signaling (IRF and NFKB-pathway activation). Briefly, cultured cells were seeded on the day of the experiment with a density of 1×10^5 cells per well (96-well format in RPMI supplemented with 25 mM HEPES, 10% heat inactivated FCS,). A serial dilution of the compounds was prepared and added to the cells for a total incubation time of 24 hours. The test items were tested in 8 concentrations to determine a dose-dependent activation of the NFKB and the IRF pathway. After 24 h cells were centrifuged and supernatants harvested for the detection of secreted alkaline phosphatase (measured by QUANTI-Blue™ detection solution; Cat. rep-qbs Invivogen) or lucia luciferase (measured by QUANTI-Luc™ reagent; Cat. rep-qlc1, Invivogen), respectively. The read outs were be performed according to the manufacturer's instructions. EC50 values were calculated using GraphPad Prism 9.

[3] = tested on: HEK293 cells with a knocked-in STING receptor (IRF and IFNβ-pathway activation); assay: HEK STING assay with and without PFO (membrane permeabilization); type: cell-based; details: for EC50: Homo sapiens
[4] = Solubility in PBS and HEPES buffer; type: physicochemical; details: for solubility: aqueous buffer
Description: The primary differences are that Compound XX is less hydrophobic as a result of the introduction of oxazolyl heterocyclic ring in place of the pyrazolyl heterocyclic ring of Compound XV and as a result of the introduction of an imidazopyridine ring in place of the benzimidazole ring of Compound XV.

[5] = IFNβ in supernatant, read-out: PBMC EC50 (μM) for IFNβ
[6] = IFNα in supernatant, read-out: PBMC EC50 (μM) for IFNα
[7] = 24 h incubation, IRF pathway, read-out: THP-1 EC50 (IRF)
[8] = IRF pathway, read-out: THP-1 IRF EC50
[9] = NFkB pathway, read-out: THP-1 NFkB EC50
[10] = HEK293, read-out: HEK STING EC50 no PFO [nM]
[11] = HEK293, read-out: HEK STING EC50 with PFO [nM]
[12] = HEPES Buffer pH 7.0, read-out: Solubility HEPES Buffer pH 7.0

SMILES: CCn1nc(C)cc1C(=O)Nc1nc2cc(C(N)=O)cc(OC)c2n1C/C=C/Cn1c(NC(=O)c2cc(C)nn2CC)nc2cc(C(N)=O)cc(OCCCC(=O)NNCc3ccc(N)cc3)c21 [I-F]
- EC50 [1, 5]: 0.209 µM

SMILES: CCn1nc(C)cc1C(=O)Nc1nc2cc(C(N)=O)cc(OC)c2n1C/C=C/Cn1c(NC(=O)c2cc(C)nn2CC)nc2cc(C(N)=O)cc(OCCCC(=O)NNC)c21 [I-C]
- EC50 [1, 5]: 1.1 µM

- EC50 [2, 7]: 84.9 nM
SMILES: CCn1nc(C)cc1C(=O)Nc1nc2cc(C(=O)NN)cc(OC)c2n1C/C=C/Cn1c(NC(=O)c2cc(C)nn2CC)nc2cc(C(N)=O)cc(OCCCN3CCOCC3)c21 [II-A]
- EC50 [1, 6]: 0.875 µM
- EC50 [1, 5]: 0.403 µM

SMILES: CCn1nc(C)cc1C(=O)Nc1nc2cc(C(N)=O)cc(OC)c2n1C/C=C/Cn1c(NC(=O)c2cc(C)nn2CC)nc2cc(C(N)=O)cc(OCCCC(=O)NO)c21 [I-G]
- EC50 [1, 6]: 2.02 µM
- EC50 [1, 5]: 0.311 µM

- EC50 [2, 7]: 9.74 nM
SMILES: CCn1nc(C)cc1C(=O)Nc1nc2cc(C(N)=O)cc(OC)c2n1C/C=C/Cn1c(NC(=O)c2cc(C)nn2CC)nc2cc(C(N)=O)cc(OCCCC(=O)N3CCN(N)CC3)c21 [I-K]
- EC50 [1, 6]: 0.302 µM
- EC50 [1, 5]: 0.234 µM

SMILES: CCn1nc(C)cc1C(=O)Nc1nc2cc(CO)cc(OC)c2n1C/C=C/Cn1c(NC(=O)c2cc(C)nn2CC)nc2cc(C(N)=O)cc(OCCCN3CCOCC3)c21 [Compound XL, (E)-2-(1-ethyl-3-methyl-1H-pyrazole-5-carboxamido)-1-(4-(2-(1-ethyl-3-methyl-1H-pyrazole-5-carboxamido)-5-(hydroxymethyl)-7-methoxy-1H-benzo[d]imidazol-1-yl)but-2-en-1-yl)-7-(3-morpholinopropoxy)-1H-benzo[d]imidazole-5-carboxamide]
- THP-1 IRF MEC ([2]; Activity w/o permeabilization): 78 nM
- THP-1 NFkB MEC ([2]; Activity w/o permeabilization): 78 nM
- EC50 [2, 8]: 221 nM
- EC50 [2, 9]: 149 nM
- HEK IFNβ MEC ([3]; Activity w/o permeabilization): 0.8 nM
- HEK IFNβ MEC ([3]; Activity with permeabilization): 4.0 nM
- EC50 ([3]; HEK293, Activity w/o permeabilization, read-out: HEK IRF EC50): 0.53 nM
- EC50 ([3]; HEK293, Activity with permeabilization, read-out: HEK IRF EC50): 1.11 nM
- EC50 [3, 10]: 2.7 nM
- EC50 [3, 11]: 2.7 nM

SMILES: CCn1nc(C)cc1C(=O)Nc1nc2cc(C(N)=O)cc(OC)c2n1C/C=C/Cn1c(NC(=O)c2cc(C)nn2CC)nc2cc(C(N)=O)cc(OCCCN3CCOCC3)c21 [diABZI, reference compound]
- EC50 [2, 8]: 16 nM
- EC50 [2, 9]: 14 nM
- EC50 [3, 10]: 1.6 nM
- EC50 [3, 11]: 1.2 nM

SMILES: CCn1nc(C)cc1C(=O)Nc1nc2cc(C(N)=O)cc(OC)c2n1C/C=C/Cn1c(NC(=O)c2cc(C)nn2CC)nc2cc(C(N)=O)cc(OCCCC(=O)N(C)O)c21 [I-H]
- EC50 [1, 6]: 0.665 µM
- EC50 [1, 5]: 0.249 µM

- EC50 [2, 7]: 23.4 nM
SMILES: CCn1nc(C)cc1C(=O)Nc1nc2cc(C(N)=O)cc(OC)c2n1C/C=C/Cn1c(NC(=O)c2cc(C)nn2CC)nc2cc(C(N)=O)cc(OCCCC(=O)N(N)CCN)c21 [I-J]
- EC50 [1, 6]: 0.321 µM
- EC50 [1, 5]: 0.293 µM

- Solubility versus Compound XV ([4]; Compound XX compared with Compound XV): slightly better solubility
- solubility [4, 12]: 11.5 µM and 10 µg/mL
- solubility ([4]; PBS Buffer pH 7.4, lower limit of quantitation 1 μM, read-out: Solubility PBS Buffer pH 7.4): 3.6 µM
- solubility ([4]; PBS Buffer pH 7.4, read-out: Solubility PBS Buffer pH 7.4): 3 µg/mL
SMILES: CCc1nc(C)oc1C(=O)Nc1nc2cc(C(N)=O)cnc2n1C/C=C/Cn1c(NC(=O)c2oc(C)nc2CC)nc2cc(C(N)=O)cc(OCCCN(C)N)c21 [Compound XX]

SMILES: CCn1nc(C)cc1C(=O)Nc1nc2cc(CN)cc(OC)c2n1C/C=C/Cn1c(NC(=O)c2cc(C)nn2CC)nc2cc(C(N)=O)cc(OCCCN3CCOCC3)c21 [Compound XLI, 1-[(2E)-4-[5-(Aminomethyl)-2-(1-ethyl-3-methyl-1H-pyrazole-5-amido)-7-methoxy-1H-1,3-benzodiazol-1-yl]but-2-en-1-yl]-2-(1-ethyl-3-methyl-1H-pyrazole-5-amido)-7-[3-(morpholin-4-yl)propoxy]-1H-1,3-benzodiazole-5-carboxamide]
- EC50 [2, 8]: 811 nM
- EC50 [2, 9]: 364 nM
- EC50 [3, 10]: 38 nM
- EC50 [3, 11]: 25 nM

SMILES: CCn1nc(C)cc1C(=O)Nc1nc2cc(C(N)=O)cc(OC)c2n1C/C=C/Cn1c(NC(=O)c2cc(C)nn2CC)nc2cc(C(N)=O)cc(OCCCC(=O)N(N)Cc3ccc(N)cc3)c21 [I-E]
- EC50 [1, 6]: 0.762 µM
- EC50 [1, 5]: 0.139 µM

- Solubility PBS Buffer pH 7.4 ([4]; PBS Buffer pH 7.4): <LOQ
- Solubility PBS Buffer pH 7.4 ([4]; PBS Buffer pH 7.4, lower limit of quantitation 1 μM): <LOQ^#
- solubility [4, 12]: 5.9 µM and 5 µg/mL
SMILES: CCn1nc(C)cc1C(=O)Nc1nc2cc(C(N)=O)cc(OC)c2n1C/C=C/Cn1c(NC(=O)c2cc(C)nn2CC)nc2cc(C(N)=O)cc(OCCCN(C)N)c21 [Compound XV]

SMILES: CCc1nc(C)oc1C(=O)Nc1nc2cc(CO)cc(OC)c2n1C/C=C/Cn1c(NC(=O)c2oc(C)nc2CC)nc2cc(C(N)=O)cc(OCCCN3CCOCC3)c21 [Compound XLII, (E)-N-(5-carbamoyl-1-(4-(2-(4-ethyl-2-methyloxazole-5-carboxamido)-5-(hydroxymethyl)-7-methoxy-1H-benzo[d]imidazol-1-yl)but-2-en-1-yl)-7-(3-morpholinopropoxy)-1H-benzo[d]imidazol-2-yl)-4-ethyl-2-methyloxazole-5-carboxamide]
- EC50 [2, 8]: 333 nM
- EC50 [2, 9]: 290 nM
- EC50 [3, 10]: 26 nM
- EC50 [3, 11]: 14 nM

- EC50 [2, 7]: 267 nM
SMILES: CCn1nc(C)cc1C(=O)Nc1nc2cc(C(=O)N(C)N)cc(OC)c2n1C/C=C/Cn1c(NC(=O)c2cc(C)nn2CC)nc2cc(C(N)=O)cc(OCCCN3CCOCC3)c21 [II-C]
- EC50 [1, 6]: 1.15 µM
- EC50 [1, 5]: 0.91 µM

SMILES: CCn1nc(C)cc1C(=O)Nc1nc2cc(C(N)=O)cc(OC)c2n1C/C=C/Cn1c(NC(=O)c2cc(C)nn2CC)nc2cc(C(N)=O)cc(OCCCC(=O)N(C)N)c21 [I-B]
- EC50 [1, 5]: 0.403 µM

SMILES: CCn1nc(C)cc1C(=O)Nc1nc2cc(C(N)=O)cc(OC)c2n1C/C=C/Cn1c(NC(=O)c2cc(C)nn2CC)nc2cc(C(N)=O)cc(OCCCC(=O)N(C)OC)c21 [I-I]
- EC50 [1, 6]: 0.41 µM
- EC50 [1, 5]: 0.212 µM

SMILES: CCn1nc(C)cc1C(=O)Nc1nc2cc(C(N)=O)cc(OC)c2n1C/C=C/Cn1c(NC(=O)c2cc(C)nn2CC)nc2cc(C(N)=O)cc(OCCCC(=O)NN)c21 [I-A]
- EC50 [1, 6]: 0.334 µM
- EC50 [1, 5]: 1.25 µM
